From US20200171118A1
Like-named read-outs stand apart in the source and are kept apart here.

Tests used:
[1] = Lewis acidity measuring method (1): rate of oxidation of CoTPP by O2 in the presence of the Lewis acid; format: physicochemical; conditions: for Lewis acidity (ΔE value): calculated from rate of oxidization of CoTPP with O2
Escherichia coli MV1184 = test: MIC/MBC determination, sterilizing effect (microplate, BHI liquid medium); format: cell-based; conditions: E. coli MV1184; substance 12.5 to 20 ppm, sodium chlorite about 0.14 mM to 0.22 mM

| Lewis acidity (ΔE value) [1] [eV] | Compound | sterilizing action (sterilizing effect) of drug made from the substance and sodium chlorite (Escherichia coli MV1184) | also measured |
| --- | --- | --- | --- |
| 0.54 | CC[N+](CC)(CC)Cc1ccccc1.[Cl-] [Benzyltriethyl ammonium chloride] |  |  |
|  | NCC(=O)O [glycine] | has a sterilizing action (sterilizing effect) |  |
|  | CCCC[N+](CCCC)(CCCC)CCCC.F[P-](F)(F)(F)(F)F [tetrabutylammonium hexafluorophosphate] |  | kcat, reaction rate constant of reaction between CoTPP and oxygen in the presence of a Lewis acid [1]: >0.1 M^−2 s^−1 |
|  | benzethonium chloride | has a sterilizing action (sterilizing effect) |  |
|  | N[C@@H](CC(=O)O)C(=O)O [L-aspartate] | has a sterilizing action (sterilizing effect) |  |
| 0.69 | C[n+]1cccc(C(=O)[O-])c1 [Trigonelline] |  |  |
|  | O=C(O)[C@@H]1CCCN1 [proline] | has a sterilizing action (sterilizing effect) |  |
| 0.67 | Cc1cc2nc3cc(C)c(N)cc3[n+](-c3ccccc3)c2cc1N.[Cl-] [Safranine] |  |  |
| 0.67 | C[N+](C)(C)CC(=O)O [Betaine] |  |  |
| 0.52 | C[N+](C)(C)CCOC(N)=O [Carbamylcholine] |  |  |
|  | oxidized glutathione | has a sterilizing action (sterilizing effect) |  |
| 0.51 | CC(=O)OCC[N+](C)(C)C [Acetylcholine] |  |  |
|  | N[C@@H](CO)C(=O)O [L-serine] | has a sterilizing action (sterilizing effect) |  |
| 0.52 | CCCCCCCCCCCCCCCCCC[N+](C)(C)Cc1ccccc1.[Cl-] | has a sterilizing action (sterilizing effect) | kcat, reaction rate constant of reaction between CoTPP and oxygen in the presence of a Lewis acid ([1]; acetonitrile, saturated O2, room temperature): 0.18 M^−2 s^−1 |

| Compound | Lewis acidity (ΔE value) [1] [eV] | sterilizing action (sterilizing effect) of drug made from the substance and sodium chlorite (Escherichia coli MV1184) | also measured |
| --- | --- | --- | --- |
| CN.Cl [methylammonium chloride] | 0.70 | has a sterilizing action (sterilizing effect) |  |
| C[n+]1ccccc1C=NO.[I-] [pralidoxime methyl iodide] | 0.60 |  |  |
| CCCC[N+](CCCC)(CCCC)CCCC.[Cl-] [Tetrabutylammonium chloride] | 0.63 | has a sterilizing action (sterilizing effect) |  |
| C[N+](C)(C)C.[Cl-] [Tetramethylammonium chloride] | 0.50 |  |  |
| Cl.N [Ammonium chloride] | 0.66 | has a sterilizing action (sterilizing effect) |  |
